Laboratory results taken from BigSolDB 2.1.

Conditions: 298.15 K

O=C(O)c1ccc(Cl)c(Cl)c1
Conditions	solubility (mole fraction)
in 1,4-dioxane	0.0493
in 2-butoxyethanol	0.0399
in 2-ethoxyethanol	0.0445
in 2-isopropoxyethanol	0.0483
in 2-methyl-1-butanol	0.0183
in 2-methyl-1-pentanol	0.0239
in 2-pentanol	0.0248
in 2-propoxyethanol	0.0468
in 3-methoxy-1-butanol	0.0503
in 4-methyl-2-pentanol	0.0255
in MTBE	0.0358
in THF	0.101
in dibutyl ether	0.00969
in diethyl ether	0.0308
in diisopropyl ether	0.0126
in ethanol	0.0173
in ethyl acetate	0.0164
in isobutanol	0.0139
in isopentanol	0.0216
in isopropanol	0.0177
in methyl acetate	0.0119
in methyl butyrate	0.0143
in n-butanol	0.0203
in n-butyl acetate	0.0206
in n-heptanol	0.0251
in n-hexanol	0.0238
in n-octanol	0.0242
in n-pentanol	0.0218
in n-pentyl acetate	0.0216
in n-propanol	0.0185
in n-propyl acetate	0.0176
in sec-butanol	0.019
in tert-butanol	0.0345
